Assays:
[1] = Pharmacokinetics in humans (healthy male subjects); format: in vivo, human
Experimental: Pharmacokinetic properties have been investigated in healthy male subjects. […] The elimination half-life for the NK3RA was approximately 7 hours. […] Renal elimination of the NK3RA or its metabolite was negligible. Following multiple dose administration, pharmacokinetic steady state was achieved within 4 days. At steady state, the exposure to the metabolite was approximately 66% of the parent circulated; the accumulation of the NK3RA in the plasma was minimal following QD dosing and was greater following BID dosing.

[2] = Pharmacokinetics and metabolism in rats; format: in vivo, rat
Experimental: At low doses, the estimated Clp of The NK3RA was moderate in rat (8.3 ml/min/kg) and low in the dog (1.2 ml/min/kg). Bioavailability (F) was ˜100% in both species indicating extensive absorption in these species. The volume of distribution (Vz) was moderate (1.6 L·kg in rat and 0.81 L/kg in dog) and consistent with the physico-chemical properties of the compound. […] The NK3RA exposure decreased after multiple dosing in rats, indicating either changes in absorption or induction of The NK3RA metabolism, or both, after multiple dosing. […] T1/2 values ranged from 5.6 hours to 14.3 hours at the end of dosing for dogs dosed at 1000 mg/kg/day (2180 μmol/kg/day). There were no consistent sex differences observed in the exposure to NK3RA in these 2 species.
Following oral administration of The NK3RA in the rat, a pharmacologically active ketone metabolite appeared rapidly in plasma but slowly reached maximum concentration levels in all animals. […] T1/2 values ranged from 8.51 hours to 13.8 hours on Day 27 and Day 28 for dogs dosed with 1000 mg/kg/day (2180 μmol/kg/day) of the NK3RA. There were no consistent sex differences observed in the exposure to the metabolite in these 2 species.

[3] = tested on: LH, free and total testosterone; test: Phase 2a randomised double blind placebo controlled study in women with PCOS (interim data); format: in vivo, human
Experimental: The pharmacodynamics, safety and pharmacokinetics of a compound of the present invention, NK3RA, is being further evaluated in a randomized, double-blind, placebo-controlled of NK3RA when given in multiple doses to females with PCOS.
In this type of clinical trial three doses of 20 mg once daily, 20 mg twice daily and 40 mg twice daily of test compound are being compared to placebo, and studied in parallel group design. […] Exploratory analyses will focus on changes from baseline of LH, DHEA, FSH, oestrogen, progesterone, prolactin, thyroid stimulating hormone, Insulin-like Growth Factor 1 [IGF-1] (as surrogate for GH) and HbA1c on days 7 and 28, as well as the impact of treatment on patient reported outcomes and HRQoL as measured by change from baseline at day 28.
The study population includes women with PCOS aged 18-45. The study will enroll 14 PCOS subjects per dose cohort with a total of N=56 for the entire study (2 drop outs per group assumed to give 12 evaluable subjects per dose). Patients are being dosed in the study over a duration of 28 days.
The effect of NK3RA on testosterone and LH is being assessed. […] LH pulse amplitude and frequency are mathematically modelled parameters from raw LH assay data.
Hourly measurement of FSH and free and total testosterone was performed during these periods of intensive monitoring.
Interim data have been obtained from a total of 20 women with Polycystic Ovary Syndrome (PCOS) who received treatment (NK3RA or placebo) in the ongoing phase 2a study. This study is a 28 day, randomised, double blind placebo controlled study with 4 treatment arms, NK3RA 20 mg once daily, 20 mg twice daily, 40 mg twice daily and placebo in women with PCOS.
Tables 1 to 3 below summarise the number of patients with data supportive, consistent and not supportive by treatment group (placebo and NK3RA).
In Table 1 the criteria used to determine what is supportive, consistent or not supportive are based on a qualitative evaluation of the changes in:
(a) LH area under the curve (AUC) between 0 and 8 hours AUC(0-8)
(b) LH pulsatility parameters derived through deconvolution (Veldhuis J D, Keenan D M, and Pincus S M. Motivations and methods for analyzing pulsatile hormone secretion. Endocrine Reviews. 2008, 29(7):823-864; and Liu P Y, Keenan D M, Kok P, Padmanabhan V, O'Byrne K T, and Veldhuis J D. Sensitivity and specificity of pulse detection using a new deconvolution method. Am J Physiol Endocrinol Metab. 2009; 297(2):538-44) • i) average mass per LH pulse in 8 hours • ii) total number of LH pulses in 8 hours.
For LH, there is a relationship between the LH AUC(0-8) and LH pulsatility. In particular, reductions in LH AUC(0-8) that would be considered to be disease modifying in PCOS will manifest themselves in pulsatility parameters of average mass per LH pulse in 8 hours and/or total number of LH pulses in 8 hours. Mass per pulse (MPP) is defined the amount of LH released per reconstructed LH pulse. The LH AUC(0-8) can be more reliably measured compared to the pulsatility parameters and therefore why both AUC(0-8) and pulsatility are considered in interpreting the level of LH reduction.
In Table 2 the criteria used to determine what is supportive, consistent or not supportive are based on a qualitative evaluation of the changes in average (on an individual patient basis) free testosterone.
In Table 3 the criteria used to determine what is supportive, consistent or not supportive are based on a qualitative evaluation of the changes in average (on an individual patient basis) total testosterone.
Expert judgement was necessary in the application of these criteria and therefore plots were evaluated independently by 3 AZ physicians. The most common result across the 3 physicians determined provided the overall evaluation for a single patient. These criteria were agreed between the 3 reviewers ahead of the plots being available for review. […]

[4] = tested on: rats; test: Respiratory parameters in rats; format: in vivo, rat; conditions: up to 2000 mg/kg (4400 μmol/kg)
[5] = tested on: rats; test: Single and repeat-dose toxicology in rats; format: in vivo, rat
Experimental: Relative epididymis weight was lower at 2000 mg/kg/day.

[6] = decrease vs baseline on both days 7 and 28
[7] = decrease vs baseline on either days 7 and 28
[8] = increase vs baseline on both days 7 and 28
[9] = rat 3 month study, 2000 mg/kg/day

## CC[C@H](NC(=O)c1c(NS(C)(=O)=O)c(-c2ccccc2)nc2ccccc12)c1ccccc1 [NK3RA, 3-(methanesulfonamido)-2-phenyl-N-[(1S)-1-phenylpropyl]quinoline-4-carboxamide]
[1]; BID dosing (compared with QD)
  accumulation in the plasma: greater
[1]; QD dosing
  accumulation in the plasma: minimal
[1]; healthy male subjects
  absorption following oral dosing: quickly absorbed
  renal elimination: negligible
[1]; human, in vivo
  time dependence of pharmacokinetics: time independent
[1]; human, plasma, oral, healthy male subjects, read-out: elimination half-life (converted)
  half-life: ~7 h
[1]; multiple dose administration
  time to pharmacokinetic steady state: ≤ 4 days
[1]; up to approximately 80 mg
  dose proportionality of AUC and Cmax: dose proportional
[2]; plasma, rat, low doses, estimated, read-out: Clp
  clearance: 8.3 mL/min/kg
[2]; rat
  volume of distribution (Vz): 1.6 L/kg
[2]; rat, oral administration
  rate of absorption: absorbed at a moderate rate
[2]; rat, plasma, oral, read-out: Bioavailability (F)
  bioavailability: ~100%
[2]; rat, plasma, read-out: elimination half-life (T½) (converted)
  half-life: 3.2 h
[2]; rats
  exposure after multiple dosing: decreased
[3]; NK3RA arms pooled, LH AUC decreases on both days 7 and 28 AND MPP or number of pulses decrease
  LH: No. of patients Supportive: 2
[3]; NK3RA arms pooled, LH AUC decreases on both days 7 and 28 OR MPP or number of pulses decrease
  LH: No. of patients Consistent: 3
[3]; NK3RA arms pooled, LH AUC, MPP and number of pulses increase on day 7 or 28
  LH: No. of patients Non-supportive: 3
[3]; [6]
  Free testosterone: No. of patients Supportive: 2
  Total Testosterone: No. of patients Supportive: 3
[3]; [7]
  Free testosterone: No. of patients Consistent: 4
  Total Testosterone: No. of patients Consistent: 3
[3]; [8]
  Free testosterone: No. of patients Non-supportive: 3
  Total Testosterone: No. of patients Non-supportive: 4
[4]
  respiratory parameters: did not affect any respiratory parameters
[5]; rat 3 month study
  histological changes: no NK3RA-related histological changes
[5]; [9]
  absolute testis weight: lower
  relative epididymis weight: lower
[5]; rat 3 month study, 200 and 2000 mg/kg/day (dose-related)
  relative testis weight: lower than controls
[5]; rats
  findings at the highest doses: increased liver weights with no histological correlate
  findings in the female reproductive system, repeat-dose toxicology studies: no findings in the female reproductive system
[5]; rats, up to 2000 mg/kg/day
  tolerability, multiple dosing for three month: well tolerated
[5]; rats, up to the limit dose of 2000 mg/kg
  tolerability, single dosing: well tolerated

From patent US9475773B2, “NK3 receptor antagonist compound (NK3RA) for use in a method for the treatment of polycystic ovary syndrome (PCOS)” (ASTRAZENECA AB, priority 2013, dated 2016)
